Experimental data: patent publication US20100204203A1, “Chemical Compounds 637: Pyridopyrimidinediones as PDE4 Inhibitors” (priority 2007, published 2010)
Where a name gives a salt, the structure may show the parent alone.

Molecular target: recombinant Human Phosphodiesterase B2 (PDE4B2) (Homo sapiens, UniProt Q07343)
Assay: Human Phosphodiesterase B2 Radiometric Assay (yttrium silicate SPA beads, [3H]cyclic AMP)
Assay type: biochemical
Conditions: recombinant human PDE4B2, radiometric SPA assay, 8 nM [3H]cyclic AMP; read-out: PDE4B2 pIC50 (converted)
Description: Human Phosphodiesterase B2 Radiometric Assay
The assay uses recombinant Human Phosphodiesterase B2 (PDE4B2) produced in house (PrAZL0163), stored at −20° C. This assay is based on the observation that 5′AMP, the product of the reaction catalysed by PDE4, binds preferentially to yttrium silicate SPA beads (Amersham Biosciences, UK) compared to the substrate, cAMP. Compounds at the appropriate concentration were preincubated at 30 C for 30 min with an assay buffer containing 50 mM HEPES (pH 7.5), 8.3 mM MgCl2, 1.7 mM EGTA, 0.01% (w/v) Brij° 35 and 0.1 mg/mL recombinant PDE4B2. The reaction was started by the addition of [3H]cyclic AMP to give a final concentration of 8 nM, and was stopped 20 minutes after the addition of the substrate by the addition of yttrium silicate SPA beads containing 18 mM Zn SO4. Bound [3H]cyclic AMP was measured using a Topcount NXT (Packard Bioscience, UK). pIC50 values (presented in Table 15) were determined using Xlfit3 curve fitting, using model 205.

Sequence of recombinant Human Phosphodiesterase B2 (PDE4B2) (Q07343 1-564 isoform Q07343-2): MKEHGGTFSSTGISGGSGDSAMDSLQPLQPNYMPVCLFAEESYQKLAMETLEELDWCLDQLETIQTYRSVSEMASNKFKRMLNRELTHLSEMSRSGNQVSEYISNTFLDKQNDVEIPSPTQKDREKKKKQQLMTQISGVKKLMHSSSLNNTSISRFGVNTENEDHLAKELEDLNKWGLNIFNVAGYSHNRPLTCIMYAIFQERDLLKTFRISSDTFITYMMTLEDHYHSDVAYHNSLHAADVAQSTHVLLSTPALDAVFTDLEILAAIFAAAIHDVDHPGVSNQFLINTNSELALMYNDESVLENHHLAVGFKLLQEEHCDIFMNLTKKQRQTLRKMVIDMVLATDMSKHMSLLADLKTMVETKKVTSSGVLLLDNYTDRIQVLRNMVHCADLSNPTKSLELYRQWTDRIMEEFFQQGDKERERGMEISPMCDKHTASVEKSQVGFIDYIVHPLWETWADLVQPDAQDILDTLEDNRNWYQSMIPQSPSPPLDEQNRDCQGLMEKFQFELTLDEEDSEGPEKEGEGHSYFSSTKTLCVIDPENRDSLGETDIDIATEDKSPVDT

**Q.** For `O=C(N[C@H]1CC[C@@H](n2c(=O)c3cc(F)cnc3n(-c3cccc(-c4ccc(CCN5CCOCC5)cc4)c3)c2=O)CC1)c1cn2cc(F)ccc2n1` [Example 50, 6-fluoro-N-{cis-4-[6-fluoro-1-[4′-(2-morpholin-4-ylethyl)biphenyl-3-yl]-2,4-dioxo-1,4-dihydropyrido[2,3-d]pyrimidin-3(2H)-yl]cyclohexyl}imidazo[1,2-c]pyridine-2-carboxamide], which IC50 is on record?
**A.** Its IC50 is 0.00794 nM.

**Q.** For `CC(C)(C)OC(=O)N1CCN(Cc2ccc(-c3cccc(-n4c(=O)n([C@H]5CC[C@@H](NC(=O)c6cn7cc(F)ccc7n6)CC5)c(=O)c5cc(F)cnc54)c3)cc2)CC1` [Example 51], which IC50 is on record?
**A.** The IC50 was 0.0398 nM.

**Q.** How did the IC50 turn out when `Cc1ccccc1-c1cccc(-n2c(=O)n([C@H]3CC[C@@H](N)CC3)c(=O)c3cc(F)cnc32)c1` [Example 52, 3-(cis-4-aminocyclohexyl)-6-fluoro-1-(2′-methylbiphenyl-3-yl)pyrido[2,3-d]pyrimidine-2,4(1H,3H)-dione] was run?
**A.** The IC50 was 2.51 nM.

**Q.** `CN(C)C1(C(=O)N[C@H]2CC[C@@H](n3c(=O)c4cc(F)cnc4n(-c4cccc(-c5ccccc5)c4)c3=O)CC2)CC1` [Example 53, N-[cis-4-(1-biphenyl-3-yl-6-fluoro-2,4-dioxo-1,4-dihydropyrido[2,3-d]pyrimidin-3(2H)-yl)cyclohexyl]-1-(dimethylamino)cyclopropanecarboxamide] was tested. Which IC50 did it give?
**A.** Its IC50 is 0.0158 nM.

**Q.** How did the IC50 turn out when `O=C(N[C@H]1CC[C@@H](n2c(=O)c3cc(F)cnc3n(-c3cccc(-c4ccc(CN5CCNCC5)cc4)c3)c2=O)CC1)c1cn2cc(F)ccc2n1` [Example 54, 6-fluoro-N-{cis-4-[6-fluoro-2,4-dioxo-1-[4′-(piperazin-1-ylmethyl)biphenyl-3-yl]-1,4-dihydropyrido[2,3-d]pyrimidin-3(2H)-yl]cyclohexyl}imidazo[1,2-a]pyridine-2-carboxamide] was run?
**A.** Its IC50 is 0.0158 nM.

**Q.** With `O=C(N[C@H]1CC[C@@H](n2c(=O)c3cc(F)cnc3n(-c3cccc(-c4ccccn4)c3)c2=O)CC1)c1cn2cc(F)ccc2n1` [Example 55, 6-fluoro-N-{cis-4-[6-fluoro-2,4-dioxo-1-(3-pyridin-2-ylphenyl)-1,4-dihydropyrido[2,3-d]pyrimidin-3(2H)-yl]cyclohexyl}imidazo[1,2-a]pyridine-2-carboxamide] as the compound, how does the IC50 read?
**A.** The IC50 was 0.1 nM.

**Q.** With `O=C(N[C@H]1CC[C@@H](n2c(=O)c3cc(F)cnc3n(-c3cccc(-c4ccc(CN5CC[C@@H](O)C5)cc4)c3)c2=O)CC1)c1cn2cc(F)ccc2n1` [Example 56, 6-fluoro-N-{cis-4-[6-fluoro-1-(4′-{[(3R)-3-hydroxypyrrolidin-1-yl]methyl}biphenyl-3-yl)-2,4-dioxo-1,4-dihydropyrido[2,3-d]pyrimidin-3(2H)-yl]cyclohexyl}imidazo[1,2-a]pyridine-2-carboxamide] as the compound, how does the IC50 read?
**A.** Its IC50 is 0.0251 nM.

**Q.** `CN(Cc1ccc(-c2cccc(-n3c(=O)n([C@H]4CC[C@@H](NC(=O)c5cn6cc(F)ccc6n5)CC4)c(=O)c4cc(F)cnc43)c2)cc1)C(C)(C)C` [Example 57, N-{cis-4-[1-(4′-{[tert-butyl(methyl)amino]methyl}biphenyl-3-yl)-6-fluoro-2,4-dioxo-1,4-dihydropyrido[2,3-d]pyrimidin-3(2H)-yl]cyclohexyl}-6-fluoroimidazo[1,2-a]pyridine-2-carboxamide] was tested. Which IC50 did it give?
**A.** The IC50 was 0.1 nM.

**Q.** How did the IC50 turn out when `O=C(N[C@H]1CC[C@@H](n2c(=O)c3cc(F)cnc3n(-c3cccc(-c4ccc(OCCO)cc4)c3)c2=O)CC1)c1cn2cc(F)ccc2n1` [Example 58, 6-fluoro-N-{cis-4-[6-fluoro-1-[4′-(2-hydroxyethoxy)biphenyl-3-yl]-2,4-dioxo-1,4-dihydropyrido[2,3-d]pyrimidin-3(2H)-yl]cyclohexyl}imidazo[1,2-a]pyridine-2-carboxamide] was run?
**A.** The IC50 was 0.0158 nM.

**Q.** `C[C@H](CO)NCc1ccc(-c2cccc(-n3c(=O)n([C@H]4CC[C@@H](NC(=O)c5cn6cc(F)ccc6n5)CC4)c(=O)c4cc(F)cnc43)c2)cc1` [Example 59] was tested. Which IC50 did it give?
**A.** The IC50 was 0.158 nM.

**Q.** Which IC50 does the source give for `O=C(N[C@H]1CC[C@@H](n2c(=O)c3cc(F)cnc3n(-c3cccc(-c4ccccc4C(=O)O)c3)c2=O)CC1)c1cn2cc(F)ccc2n1` [Example 60, 3′-[6-fluoro-3-(cis-4-{[(6-fluoroimidazo[1,2-a]pyridin-2-yl)carbonyl]amino}cyclohexyl)-2,4-dioxo-3,4-dihydropyrido[2,3-d]pyrimidin-1(2H)-yl]biphenyl-2-carboxylic acid] here?
**A.** The IC50 was 6.31 nM.

**Q.** `CNC1CCN(Cc2ccc(-c3cccc(-n4c(=O)n([C@H]5CC[C@@H](NC(=O)c6cn7cc(F)ccc7n6)CC5)c(=O)c5cc(F)cnc54)c3)cc2)CC1` [Example 61, 6-fluoro-N-{cis-4-[6-fluoro-1-(4′-{[4-(methylamino)piperidin-1-yl]methyl}biphenyl-3-yl)-2,4-dioxo-1,4-dihydropyrido[2,3-d]pyrimidin-3(2H)-yl]cyclohexyl}imidazo[1,2-a]pyridine-2-carboxamide] was tested. Which IC50 did it give?
**A.** The IC50 was 0.02 nM.

**Q.** How did the IC50 turn out when `CC(=O)N[C@H]1CC[C@@H](n2c(=O)c3cc(F)cnc3n(-c3cccc(-c4ccccc4CN4CCOCC4)c3)c2=O)CC1` [Example 62, N-{cis-4-[6-fluoro-1-[2′-(morpholin-4-ylmethyl)biphenyl-3-yl]-2,4-dioxo-1,4-dihydropyrido[2,3-d]pyrimidin-3(2H)-yl]cyclohexyl}acetamide] was run?
**A.** The IC50 was 0.316 nM.

**Q.** For `O=C(N[C@H]1CC[C@@H](n2c(=O)c3cc(F)cnc3n(-c3cccc(-c4ccccc4CN4CCOCC4)c3)c2=O)CC1)c1ccccc1O` [Example 63, N-{cis-4-[6-fluoro-1-[2′-(morpholin-4-ylmethyl)biphenyl-3-yl]-2,4-dioxo-1,4-dihydropyrido[2,3-d]pyrimidin-3(2H)-yl]cyclohexyl}-2-hydroxybenzamide], which IC50 is on record?
**A.** Its IC50 is 0.0794 nM.

**Q.** Which IC50 does the source give for `CNCCNCc1ccc(-c2cccc(-n3c(=O)n([C@H]4CC[C@@H](NC(=O)c5cn6cc(F)ccc6n5)CC4)c(=O)c4cc(F)cnc43)c2)cc1` [Example 64, 6-fluoro-N-{cis-4-[6-fluoro-1-[4′-({[2-(methylamino)ethyl]amino}methyl)biphenyl-3-yl]-2,4-dioxo-1,4-dihydropyrido[2,3-a]pyrimidin-3(2H)-yl]cyclohexyl}imidazo[1,2-a]pyridine-2-carboxamide] here?
**A.** Its IC50 is 0.0794 nM.

**Q.** `CC(=O)N[C@H]1CC[C@@H](n2c(=O)c3cc(F)cnc3n(-c3cccc(-c4ccccc4)c3)c2=O)CC1` [Example 65, N-[cis-4-(1-biphenyl-3-yl-6-fluoro-2,4-dioxo-1,4-dihydropyrido[2,3-d]pyrimidin-3(2H)-yl)cyclohexyl]acetamide] was tested. Which IC50 did it give?
**A.** Its IC50 is 0.398 nM.

**Q.** `CN(C)[C@H]1CC[C@@H](n2c(=O)c3cc(F)cnc3n(-c3cccc(-c4ccccc4)c3)c2=O)CC1` [Example 66, 1-biphenyl-3-yl-3-[cis-4-(dimethylamino)cyclohexyl]-6-fluoropyrido[2,3-d]pyrimidine-2,4(1H,3H)-dione] was tested. Which IC50 did it give?
**A.** Its IC50 is 63.1 nM.

**Q.** For `NC1(C(=O)N[C@H]2CC[C@@H](n3c(=O)c4cc(F)cnc4n(-c4cccc(-c5ccccc5CN5CCOCC5)c4)c3=O)CC2)CCCC1` [Example 70, 1-amino-N-{cis-4-[6-fluoro-1-[2′-(morpholin-4-ylmethyl)biphenyl-3-yl]-2,4-dioxo-1,4-dihydropyrido[2,3-d]pyrimidin-3(2H)-yl]cyclohexyl}cyclopentanecarboxamide trifluoroacetate salt], which IC50 is on record?
**A.** The IC50 was 2 nM.

**Q.** For `CN1CCN(Cc2cc(O)ccc2-c2cccc(-n3c(=O)n([C@H]4CC[C@@H](NC(=O)c5cn6cc(F)ccc6n5)CC4)c(=O)c4cc(F)cnc43)c2)CC1` [Example 71, 6-fluoro-N-{cis-4-[6-fluoro-1-{4′-hydroxy-2′-[(4-methylpiperazin-1-yl)methyl]biphenyl-3-yl}-2,4-dioxo-1,4-dihydropyrido[2,3-d]pyrimidin-3(2H)-yl]cyclohexyl}imidazo[1,2-a]pyridine-2-carboxamide trifluoroacetate salt], which IC50 is on record?
**A.** The IC50 was 0.0794 nM.

**Q.** `O=C(N[C@H]1CC[C@@H](n2c(=O)c3cc(F)cnc3n(-c3cccc(-c4ccc(O)cc4CN4CCNCC4)c3)c2=O)CC1)c1cn2cc(F)ccc2n1` [Example 72, 6-fluoro-N-{cis-4-[6-fluoro-1-[4′-hydroxy-2′-(piperazin-1-ylmethyl)biphenyl-3-yl]-2,4-dioxo-1,4-dihydropyrido[2,3-d]pyrimidin-3(2H)-yl]cyclohexyl}imidazo[1,2-a]pyridine-2-carboxamide trifluoroacetate salt] was tested. Which IC50 did it give?
**A.** The IC50 was 0.0501 nM.

**Q.** `CNC1CCN(Cc2cc(O)ccc2-c2cccc(-n3c(=O)n([C@H]4CC[C@@H](NC(=O)c5cn6cc(F)ccc6n5)CC4)c(=O)c4cc(F)cnc43)c2)CC1` [Example 73, 6-fluoro-N-{cis-4-[6-fluoro-1-(4′-hydroxy-2′-{[4-(methylamino)piperidin-1-yl]methyl}biphenyl-3-yl)-2,4-dioxo-1,4-dihydropyrido[2,3-d]pyrimidin-3(2H)-yl]cyclohexyl}imidazo[1,2-a]pyridine-2-carboxamide trifluoroacetate salt] was tested. Which IC50 did it give?
**A.** The IC50 was 0.0251 nM.

**Q.** How did the IC50 turn out when `O=c1c2cc(F)cnc2n(-c2cccc(-c3ccccc3)c2)c(=O)n1[C@H]1CC[C@@H](NCc2cn3cc(F)ccc3n2)CC1` [Example 74, 1-biphenyl-3-yl-6-fluoro-3-(cis-4-{[(6-fluoroimidazo[1,2-a]pyridin-2-yl)methyl]amino}cyclohexyl)pyrido[2,3-d]pyrimidine-2,4(1H,3H)-dione] was run?
**A.** Its IC50 is 0.794 nM.

**Q.** With `O=c1c2cc(F)cnc2n(-c2cccc(-c3ccc(CN4CCNCC4)cc3)c2)c(=O)n1[C@H]1CC[C@@H](NCc2cn3cc(F)ccc3n2)CC1` [Example 75, 6-fluoro-3-(cis-4-{[(6-fluoroimidazo[1,2-a]pyridin-2-yl)methyl]amino}cyclohexyl)-1-[4′-(piperazin-1-ylmethyl)biphenyl-3-yl]pyrido[2,3-d]pyrimidine-2,4(1H,3H)-dione] as the compound, how does the IC50 read?
**A.** The IC50 was 0.316 nM.
